Among the data in patent US5840722A, “Use of carboxylic acid derivatives as drugs” (BASF Aktiengesellschaft, priority 1994, dated 1998) are Ki and IC50 values, retold here.

Read-outs that look alike come from different tables or passages of the source.

The target of one assay is T1, human ETA receptor (Homo sapiens, UniProt P25101).
T1 construct: expressed in transfected cells; host or cells: CHO cells (membranes)
T1 sequence (P25101 21-427): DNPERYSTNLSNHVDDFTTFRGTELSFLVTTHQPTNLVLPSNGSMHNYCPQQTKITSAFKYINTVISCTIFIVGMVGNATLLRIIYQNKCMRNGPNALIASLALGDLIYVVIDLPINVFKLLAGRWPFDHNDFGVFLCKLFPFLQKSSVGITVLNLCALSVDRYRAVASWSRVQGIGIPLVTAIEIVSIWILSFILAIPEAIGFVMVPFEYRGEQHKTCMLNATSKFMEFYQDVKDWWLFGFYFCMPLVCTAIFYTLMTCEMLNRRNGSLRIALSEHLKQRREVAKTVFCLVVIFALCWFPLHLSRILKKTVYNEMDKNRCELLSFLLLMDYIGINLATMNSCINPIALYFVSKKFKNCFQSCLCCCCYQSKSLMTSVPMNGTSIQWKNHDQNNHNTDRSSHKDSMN
The experiment in a line: Receptor-binding studies, ETA receptor binding assay ([125I]-ET1). The procedure: After 48 h, the cells were washed with PBS and incubated with 0.05% trypsin-containing PBS for 5 min. […] The membranes were centrifuged at 20,000×g for 10 min, and the pellet was stored in liquid nitrogen. […] (ETB receptor assay) in the presence and absence of test substance. The non-specific binding was determined using 10^-7 M ET1. After 30 min, the free and the bound radioligand were separated by filtration through a GF/B glass fiber filter (Whatman, England) in a Skatron cell collector (Skatron, Lier, Norway), and the filters were washed with ice-cold tris-HCl buffer, pH 7.4 with 0.2% BSA. The radioactivity collected on the filters was quantified using a Packard 2200 CA liquid scintillation counter. The Ki values were determined by non-linear regression analysis using the LIGAND program.

A further assay has as its target T2, ETB receptor (Cavia porcellus, UniProt H0VTF3).
T2 construct: Guinea pig cerebella were homogenized in a Potter-Elvejhem homogenizer; from tissue; host or cells: guinea pig cerebellum (membranes)
T2 sequence (H0VTF3 27-415): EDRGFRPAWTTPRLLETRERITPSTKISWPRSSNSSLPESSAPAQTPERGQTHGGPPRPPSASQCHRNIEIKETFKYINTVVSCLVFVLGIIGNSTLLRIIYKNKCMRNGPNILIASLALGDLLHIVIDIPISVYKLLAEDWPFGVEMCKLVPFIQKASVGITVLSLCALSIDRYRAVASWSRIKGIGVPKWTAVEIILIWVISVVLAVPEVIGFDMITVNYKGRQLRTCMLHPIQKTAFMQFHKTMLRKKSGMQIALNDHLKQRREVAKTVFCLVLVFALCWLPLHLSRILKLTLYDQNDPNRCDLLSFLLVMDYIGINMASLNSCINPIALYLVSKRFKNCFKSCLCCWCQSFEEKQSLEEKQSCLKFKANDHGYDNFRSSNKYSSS
The experiment in a line: Receptor-binding studies, ETB receptor binding assay ([125I]-RZ3, guinea pig cerebellar membranes). The procedure: Cloned human ETA receptor-expressing CHO cells and guinea pig cerebellar membranes with>60% ETB receptors compared with ETA receptors were used for binding studies.
Guinea pig cerebella were homogenized in a Potter-Elvejhem homogenizer and obtained by differential centrifugation at 1000×g for 10 min and repeated centrifugation of the supernatant at 20,000×g for 10 min.
(ETB receptor assay) in the presence and absence of test substance. The non-specific binding was determined using 10^-7 M ET1. After 30 min, the free and the bound radioligand were separated by filtration through a GF/B glass fiber filter (Whatman, England) in a Skatron cell collector (Skatron, Lier, Norway), and the filters were washed with ice-cold tris-HCl buffer, pH 7.4 with 0.2% BSA. The radioactivity collected on the filters was quantified using a Packard 2200 CA liquid scintillation counter.
The Ki values were determined by non-linear regression analysis using the LIGAND program.

For assay [1], the target named is T3, endothelin receptor of subtype A (Rattus norvegicus, UniProt P26684).
T3 construct: endogenous endothelin receptor of subtype A has been detected; endogenous in cells
T3 sequence (P26684 21-426): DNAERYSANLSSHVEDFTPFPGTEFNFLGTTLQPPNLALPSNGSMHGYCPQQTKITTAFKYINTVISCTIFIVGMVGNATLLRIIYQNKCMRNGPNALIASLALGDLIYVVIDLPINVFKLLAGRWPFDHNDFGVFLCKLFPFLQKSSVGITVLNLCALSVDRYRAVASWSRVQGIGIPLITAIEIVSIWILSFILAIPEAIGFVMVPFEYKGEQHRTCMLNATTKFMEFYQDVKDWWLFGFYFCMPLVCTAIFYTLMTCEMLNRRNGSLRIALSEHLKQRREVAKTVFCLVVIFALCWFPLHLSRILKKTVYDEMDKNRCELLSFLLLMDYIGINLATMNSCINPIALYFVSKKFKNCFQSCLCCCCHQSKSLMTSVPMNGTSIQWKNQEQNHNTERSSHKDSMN
Briefly: Functional in vitro assay system for endothelin receptor (subtype A) antagonists (ET1-induced intracellular calcium increase). Format: cell-based. From the text:
Functional in vitro assay system for searching for endothelin receptor (subtype A) antagonists This assay system is a functional cell-based assay for endothelin receptors. Certain cells when stimulated with endothelin 1 (ET1) show an increase in the intracellular calcium concentration. This increase can be measured in intact cells which have been loaded with calcium-sensitive dyes. […] The cells were then washed twice with buffer A and resuspended at 2 10^6 /ml. The fluorescence signal at Ex/Em 380/510 from 2×10^5 cells per mL was recorded continuously at 30° C. The test substances were added to the cells and, after incubation with ET1 for 3 min, the maximum change in the fluorescence was determined. The response of the cells to ET1 without previous addition of a test substance served as control and was set equal to 100%.

Consider `COc1cc(OC)nc(OC(C(=O)O)C(C)(Oc2ccc(C(C)C)cc2)c2ccccc2)n1` (stereo not drawn) [Compound 4.42], for which the Ki on human ETA receptor (cloned human ETA receptor-expressing CHO cell membranes, 25 pM [125I]-ET1, 25° C., 30 min, read-out: Ki ET-A) amounted to 250 nM; on ETB receptor (guinea pig cerebellar membranes, 25 pM [125I]-RZ3, 25° C., 30 min, read-out: Ki ET-B) it was 3000 nM. In addition, the IC50 in assay [1] (rat fibroblasts loaded with Fura 2-am, ET1-induced fluorescence change, 30° C., read-out: IC50) came out at 740 nM.

Turning to `COc1cc(OC)nc(OC(C(=O)O)C(C)(Oc2ccc(SC)cc2)c2ccccc2)n1` (stereo not drawn) [Compound 4.58], the Ki on human ETA receptor was 160 nM; on ETB receptor, 4700 nM. In addition, the IC50 in assay [1] turned out to be 1000 nM.
